{"source": "patent US11779628B2", "about": "“Use of cell-permeable peptide inhibitors of the JNK signal transduction pathway for the treatment of various diseases” (Xigen Inflammation Ltd., priority 2014, dated 2023)", "key": {"TC-3 cell cultures": {"tested_on": "TC-3 cell cultures", "assay": "Cellular import of fluorescein-labeled TAT and TAT-IB1(s) peptides", "assay_type": "cell-based", "conditions": "fluorescein-labeled peptide 1 μM", "method": "The ability of the L- and D-enantiomeric forms of TAT and TAT-IB1(s) peptides (“TAT-IB peptides”) to enter cells was evaluated. L-TAT, D-TAT, L-TAT-IB1(s), and D-TAT-IB1(s) peptides [SEQ ID NOs: 5, 6, 9 and 12, respectively] were labeled by N-terminal addition of a glycine residue conjugated to fluorescein. Labeled peptides (1 μM) were added to TC-3 cell cultures, which were maintained as described in Example 3. At predetermined times cells were washed with PBS and fixed for five minutes in ice-cold methanol-acetone (1:1) before being examined under a fluorescence microscope. Fluorescein-labeled BSA (1 μM, 12 moles/mole BSA) was used as a control.\nLittle to no signal was present at 48 hours.\nFluorescent signals from these all-D retro-inverso peptides were still very strong 1 week later, and the signal was only slightly diminished at 2 weeks post treatment."}, "[1]": {"tested_on": "female Sprague-Dawley rats, CYP-induced cystitis", "assay": "CYP-induced acute cystitis, intravesical treatment", "assay_type": "in vivo, rat", "conditions": "50 mg/mL i.ves., 24 h post-CYP", "method": "(§1) This preclinical model is well-used to test therapeutic approaches for the treatment of interstitial cystitis/painful bladder syndrome (IC/PBS).\n(§2) Animals were acclimatized to the laboratory conditions for at least 3 days before the start of any experiments. The animals were allocated to the following four experimental groups (n=10 animals per group):\n(§3) To induce acute cystitis, a single i.p. injection of CYP at a dose of 150 mg/kg in a final volume of 5 mL/kg was performed. Control rats received physiological saline under the same experimental conditions as CYP (final volume of 5 mL/kg, i.p.).\n(§4) On the day of each experiment, weight of rats was recorded.\nStandardized conditions including fixed time-of-day (a.m. to minimize the potential circadian variations in the behaviours responses) and single-experimenter testing of all animals were applied to minimize variability behavior-based pain testing. Visceral pain including allodynia and hyperalgesia was evaluated by applying to the lower abdomen, close to the urinary bladder, a set of 8 calibrated von Frey filaments of increasing forces (1, 2, 4, 6, 8, 10, 26 and 60 g) with an interstimulus interval of 5 seconds. Prior testing, the abdominal area designed for mechanical stimulation of each animal was shaved. Animals were then placed on a raised wire mesh floor under individual transparent Plexiglas box and acclimatized for at least 30 minutes before starting the von Frey test. Filaments were then applied 1-2 seconds through the mesh floor with enough strength to cause the filament to slightly bend. Each filament was tested 3 times. Care was taken to stimulate different areas within the lower abdominal region in the vicinity of the urinary bladder to avoid desensitization.\nUrinary bladders were rapidly collected and cleaned from lipoid tissue. […] Finally, wall thickness was measured using a digital caliper by placing the bladder wall between the two outside jaws."}, "[2]": {"tested_on": "female Sprague-Dawley rats, CYP-induced cystitis", "assay": "CYP-induced acute cystitis, intravenous treatment", "assay_type": "in vivo, rat", "conditions": "XG-102 2 mg/kg i.v. or ibuprofen 10 mg/kg i.v., 24 h post-CYP", "method": "as §1, §2, §3, §4\nStandardized conditions including fixed time-of-day (a.m. to minimize the potential circadian variations in the behaviours responses) and single-experimenter testing of all animals were applied to minimize variability behavior-based pain testing. Visceral pain including allodynia and hyperalgesia was evaluated by applying to the lower abdomen, close to the urinary bladder, a set of 8 calibrated von Frey filaments of increasing forces (1, 2, 4, 6, 8, 10, 26 and 60 g) with an interstimulus interval of 5 seconds. Prior testing, the abdominal area designed for mechanical stimulation of each animal was shaved. […]"}, "[3]": {"tested_on": "Sprague-Dawley albino rats, light-induced photoreceptor cell death", "assay_type": "in vivo", "conditions": "PBN", "excerpt": "The aim of this study was to investigate the dose effect of XG-102 on light-induced photoreceptor cell death.\n50 male Rat (Sprague-Dawley (albinos rat); approximately 8 weeks; 200-250 g (on ordering)) have been used. Rats are most commonly used in this experimental model. Animals were examined before study, and particular attention was paid to the eyes. Animals were held in observation for 2 weeks following their arrival. Animals were observed daily for signs of illness. Only healthy animals with no ocular abnormalities were accepted for use in experiments. Animals were housed individually in standard cages (420×270×190 mm)^ii. All animals were housed under identical environmental conditions. The temperature was held at 22±2° C. and the relative humidity at 55±10%. Rooms were continuously ventilated (15 times per hour). A cycle of 12 hours light (200-300 lx) and 12 hours darkness was automatically controlled. These parameters were continuously controlled and recorded. Throughout the study, animals had free access to food and water. They were fed a standard dry pellet diet. Tap water was available ad libitum from plastic bottles.\nForty-eight (48) rats were randomly divided into six (6) groups of eight (8) animals each. Test item (XG-102: 30 mg/ml, 3 mg/ml, and 0.3 mg/ml) and vehicle (0.9% NaCl) were administered by intravitreal injection in right eyes the day before induction. The reference (Phenyl-N-test-Butylnitrone (PBN) (50 mg/kg)) and vehicle were intraperitoneally injected 30 min before induction then, 3 times during 12 hours of light exposition, then once after induction. Animals were placed in constant light (7000 lux) for 24 h. Electroretinograms (ERG) were recorded before light treatment and on days 9, 16 and 23 after induction. Eyes were then taken for histology and outer nuclear layer (ONL) thickness assessment. The table below summarizes the allocation of animals in treatment groups:\nFor the intravitreal injection animals were anesthetized by intramuscular injection of a mixture of xylazine/ketamine. Test item (5 μl) and vehicle (5 μl) were injected in the right eye. The injection was performed under an operating microscope in the supratemporal area at pars plana using a 33G-needle mounted on a 50 μl Hamilton. The filled syringe was mounted into the UltraMicroPump III to achieve accurate injection in microliter range. Reference and vehicle were injected intraperitoneally at a dose volume of 2.5 ml/kg using a 30G-needle mounted on a 1 ml-syringe.\nLight Exposure: The rats that had been dark-adapted overnight were exposed for 24 hours to a continuous white fluorescent light (7000 Ix) in clear plastic cages. Each cage contained one rat. After exposure, the rats returned to rearing cyclic light conditions.\nERG was recorded before induction and 7, 14 and 21 days after cessation of exposure (Days 9, 16 and 23) on right eyes of dark-adapted and anesthetized animals. The latency times (for a- and b-wave) and the a-wave and b-wave amplitudes were measured for each ERG; the latency times were expressed as millisecond and the a-wave and b-wave as a percentage of the baseline value obtained before light exposure. 15 min before measurement 10 μl Mydriaticum® (0.5% tropicamide) were instilled for pupillary dilatation.\nERG Parameters: • Color: white maximum. • Maximum intensity: 2.6 cd·s/m^2 (0 dB); Duration 0.24 ms; number of flash: 1. • Filter: 50 Hz. • Impedence Threshold: 90 kΩ.\nMeasurement of the ONL Thickness: After ERG testing, animal was euthanized by an overdose of pentobarbital and the right eyes were enucleated, fixed and embedded in paraffin. Sections (5 μm thick) were performed along the vertical meridian and stained with Trichrome-Masson. The vertical meridian included the optic nerve.\nGroup mean values and standard deviation were calculated. A statistical Mann and Whitney test was used to evaluate the differences between pair-wise groups. For comparison between time-point into each vehicle groups, a Friedman test was used. […]"}, "JNK": {"tested_on": "JNK", "conditions": "Dickens et al. 1997; cited from earlier work"}, "[4]": {"tested_on": "patients after ocular surgery", "assay": "Clinical Phase II, post-surgery intraocular inflammation: safety", "method": "The criteria for evaluation of safety were: • a. Visual acuity by ETDRS method • b. Slit Lamp examination findings • c. The results of the ophthalmic fundus examination • d. Intra Ocular Pressure (IOP) measurements • e. Vital signs (blood pressure (BP), pulse rate (PR) and rhythm) • f. The results of the hematology and chemistry laboratory tests • g. The occurrence of Adverse Events • h. Presence (or not) of XG-102 in plasma 1 hour after the administration of study treatment in a subset of patients (approximately 30).\nAn AE is therefore any unfavorable and unintended sign, symptom or disease temporally associated with the use of a medicinal product, whether or not considered related to the medicinal product.\nA Suspected Unexpected Serious Adverse Reaction (SUSAR) was defined as a suspected adverse reaction related to the treatment that is both unexpected (i.e. not consistent with the expected outcomes of the study treatment being administered) and serious.\nPatients were analyzed as treated, i.e. according to the treatment which they received. The safety set was the primary analysis set for the safety analysis.\nThe present study was a double-blind study. All patients who were randomized and for whom the sub-conjunctival injection was started are included in the safety analysis by dose group. […] If the study treatment eye drops were stopped prematurely (i.e. before day 21), the patients concerned continued follow-up until day 28, in accordance with the study protocol.\nInvestigators assessed (in a blinded manner) the relationship of each reported AE to any of the study treatments. An event was considered to be related to study treatment if the Investigator ticked either ‘possible’ or ‘probable’ as the reply to this question."}, "TC-3 cells": {"tested_on": "TC-3 cells", "assay": "IL-1 induced pancreatic beta-cell death", "assay_type": "cell-based", "conditions": "single addition 1 μM, two days with IL-1", "method": "Inhibition of IL-1 induced pancreatic beta-cell death by the D-TAT-IB1(s) peptide was analyzed. […] Apoptotic cells were then counted after two days of incubation with IL-1 by use of Propidium Iodide and Hoechst 33342 nuclear staining. A minimum of 1,000 cells were counted for each experiment. Standard Error of the Means (SEM) are indicated, n=5. […] Long term inhibition of IL-1P induced cell-death by the D-TAT-IB1 peptide was also analyzed. […] Apoptotic cells were then counted after 15 days of incubation with IL-1 by use of propidium iodide and Hoechst 33342 nuclear staining. […] A minimum of 1.000 cells were counted for each experiment."}, "[5]": {"conditions": "Dexamethasone group, blinded assessment"}}, "note": "Like-named read-outs stand apart in the source and are kept apart here. Non-standard residues stand in square brackets, D forms with d. No end group written: not given here."}
{"compound": "GRKKRRQRRR (Description of sequence Peptide L-TAT (see Table 1))", "values": [{"measurement": "entry into cells", "setting": "TC-3 cell cultures", "value": "efficiently and rapidly (less than five minutes) entered cells"}]}
{"compound": "GRKKRRQRRRPPRPKRPTTLNLFPQVPRSQD [L-TAT-IB1(s)]", "values": [{"measurement": "entry into cells", "setting": "TC-3 cell cultures", "value": "efficiently and rapidly (less than five minutes) entered cells"}]}
{"compound": "CC(C)Cc1ccc(C(C)C(=O)O)cc1", "note": "(stereo not shown) [ibuprofen]", "values": [{"measurement": "haemorrhage scores", "setting": "[1]", "value": "no significant change was observed regarding haemorrhage scores"}, {"measurement": "nociceptive scores", "setting": "[1]", "value": "significant decrease of nociceptive scores"}, {"measurement": "urinary bladder wall thickness", "setting": "[1]", "value": "a significant decrease was observed in urinary bladder wall thickness"}, {"measurement": "nociceptive threshold", "setting": "[1]; vs vehicle", "value": "Nociceptive threshold was significantly increased by ibuprofen treatment"}, {"measurement": "nociceptive scores", "setting": "[2]", "value": "significantly decrease nociceptive scores"}, {"measurement": "nociceptive threshold", "setting": "[2]", "value": "Nociceptive threshold was significantly increased by ibuprofen treatment"}]}
{"compound": "CC(C)(C)[N+]([O-])=Cc1ccccc1", "note": "[PBN, Phenyl-N-tert-Butylnitrone]", "values": [{"measurement": "recovery of the b-wave (% of baseline)", "setting": "[3]; Day 9", "value": 100, "unit": "%"}, {"measurement": "recovery of the b-wave (% of baseline)", "setting": "[3]; Day 16", "value": 103.6, "unit": "%"}, {"measurement": "decrease of ONL thickness vs untreated eyes", "setting": "[3]; Day 23", "value": 16, "unit": "%"}, {"measurement": "recovery of the a-wave (% of baseline)", "setting": "[3]; Day 23", "value": 76.2, "unit": "%"}, {"measurement": "recovery of the b-wave (% of baseline)", "setting": "[3]; Day 23", "value": 102.4, "unit": "%"}]}
{"compound": "PGTGCGDTYRPKRPTTLNLFPQVPRSQDT (Description of sequence peptide IB1-long (see Table 1))", "values": [{"measurement": "efficiency in binding JNK relative to c-Jun or ATF2", "setting": "JNK", "value": "approximately 100 fold"}]}
{"compound": "IPSPSVEEPHKHRPTTLRLTTLGAQDS (Description of sequence Peptide IB2-long (see Table 1))", "values": [{"measurement": "efficiency in binding JNK relative to c-Jun or ATF2", "setting": "JNK", "value": "approximately 100 fold"}]}
{"compound": "C[C@@H]1C[C@H]2[C@@H]3CCC4=CC(=O)C=C[C@]4(C)[C@@]3(F)[C@@H](O)C[C@]2(C)[C@@]1(O)C(=O)CO", "note": "[Dexamethasone, reference compound]", "values": [{"measurement": "Reported AEs by severity: Mild", "setting": "[4]; Dexamethasone dose group", "value": "42 (76.4%) number of events (% of reported events)"}, {"measurement": "Reported AEs by severity: Moderate", "setting": "[4]; Dexamethasone dose group", "value": "9 (16.4%) number of events (% of reported events)"}, {"measurement": "Reported AEs by severity: Severe", "setting": "[4]; Dexamethasone dose group", "value": "4 (7.3%) number of events (% of reported events)"}, {"measurement": "AEs considered by the Investigator to be related to Dexamethasone", "setting": "[4]; [5]", "value": "2 (3.6%) Total # events (%)"}, {"measurement": "AEs considered by the Investigator to be related to XG-102", "setting": "[4]; [5]", "value": "13 (23.64%) Total # events (%)"}, {"measurement": "Intraocular pressure increased, patients", "setting": "[4]; dexamethasone", "value": 14, "unit": "%"}, {"measurement": "events in SOC EYE DISORDERS", "setting": "[4]; dexamethasone", "value": 30, "unit": "events"}, {"measurement": "patients with SAEs", "setting": "[4]; dexamethasone", "value": 2, "unit": "patients"}, {"measurement": "patients with events in SOC EYE DISORDERS", "setting": "[4]; dexamethasone", "value": "16 (32%)"}]}
{"compound": "TDQSRPVQPFLNLTTPRKPRYTDPPRRRQRRKKRG ([dT][dD][dQ][dS][dR][dP][dV][dQ][dP][dF][dL][dN][dL][dT][dT][dP][dR][dK][dP][dR][dY][dT][dD][dP][dP][dR][dR][dR][dQ][dR][dR][dK][dK][dR]G) [D-TAT-IB1]", "values": [{"measurement": "IL-1 induced apoptosis", "setting": "TC-3 cells", "value": "decreased IL-1 induced apoptosis to a similar extent as L-TAT-IB peptides"}]}
